Here are results for 13 compounds from ChEMBL document CHEMBL3351493, “Beta-aminoketones as prodrugs for selective irreversible inhibitors of type-1 methionine aminopeptidases” (Bioorg Med Chem Lett, 2014).

A word on the MIC: it is the lowest concentration found to suppress growth. The term IC50 denotes the midpoint of a concentration-inhibition curve. What is called inhibition is the share of the control response that was lost under treatment. In general, half-life refers to the time needed for the level to fall by half in the phase considered.

For series [1], the system named is Escherichia coli. Briefly: Antimicrobial activity against Escherichia coli BL21(DE3) assessed as inhibition of bacterial growth incubated at 37 degC for 7 hrs. In kind it is functional.
Series [2] can be described thus: Glutathione reactivity assessed as second-order rate constant at 250 uM at pH 6.0 by HPLC-UV method.
The subject of another series is HaCaT. Kind of series: Cytotoxicity against human HaCaT cells at 1.6 to 100 ug/ml after 72 hrs by crystal violet assay. In kind it is cell-based.
The nature of series [3]: Cytotoxicity against human Flow 2002 cells at 1.6 to 100 ug/ml after 72 hrs by crystal violet assay. Type of series: cell-based. The note with it: flow 2002, 72 h.
The test system of a further series is A 172. Kind of series: Cytotoxicity against human A172 cells at 1.6 to 100 ug/ml after 72 hrs by crystal violet assay. In kind it is functional, cell-based.
In another series the test system is CAPAN-1. Briefly: Cytotoxicity against human Capan1 cells at 1.6 to 100 ug/ml after 72 hrs by crystal violet assay. Type of series: functional, cell-based.
The subject of another series is Ca-Ski. Briefly: Cytotoxicity against human CaSki cells at 1.6 to 100 ug/ml after 72 hrs by crystal violet assay. Type of series: functional, cell-based.
In another series the test system is SW707. Kind of series: Cytotoxicity against human SW707 cells at 1.6 to 100 ug/ml after 72 hrs by crystal violet assay. Type of series: functional, cell-based.
For a further series, the system named is Calu-6. Briefly: Cytotoxicity against human Calu6 cells at 1.6 to 100 ug/ml after 72 hrs by crystal violet assay. Type of series: functional, cell-based.
A further series relates to MeWo. Briefly: Cytotoxicity against human MeWo cells at 1.6 to 100 ug/ml after 72 hrs by crystal violet assay. In kind it is functional, cell-based.
The test system of the next series is BT-474. Kind of series: Cytotoxicity against human BT474 cells at 1.6 to 100 ug/ml after 72 hrs by crystal violet assay. Type of series: functional, cell-based.
In another series the test system is A-431. Briefly: Cytotoxicity against human A431 cells at 1.6 to 100 ug/ml after 72 hrs by crystal violet assay. In kind it is functional, cell-based.
For series [4], the target named is T1, Methionine aminopeptidase (Escherichia coli K-12, UniProt P0AE18).
T1 sequence (P0AE18 whole entry): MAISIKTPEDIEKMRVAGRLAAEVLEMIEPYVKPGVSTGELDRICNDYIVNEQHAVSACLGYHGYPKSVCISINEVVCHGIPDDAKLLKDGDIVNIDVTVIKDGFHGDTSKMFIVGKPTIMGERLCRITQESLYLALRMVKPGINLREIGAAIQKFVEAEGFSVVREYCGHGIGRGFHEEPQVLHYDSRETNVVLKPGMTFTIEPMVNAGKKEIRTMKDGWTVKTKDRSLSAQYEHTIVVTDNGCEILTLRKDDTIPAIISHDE
Kind of series: Inhibition of C-terminal poly-His-tagged Escherichia coli MetAP expressed in Escherichia coli BL21(DE3) incubated for 30 mins before MGMM substrate addition by fluorescence assay.

Series [5] deals with Methionine aminopeptidase (Staphylococcus aureus (strain COL), UniProt Q5HEN6). Kind of series: Inhibition of N-terminal poly-His-tagged Staphylococcus aureus COL MetAP expressed in Escherichia coli BL21(DE3) incubated for 30 mins before MGMM substrate addition by fluorescence assay. Details: species or system Staphylococcus aureus subsp. aureus COL.
Series [6] deals with Methionine aminopeptidase 1 (Homo sapiens, UniProt P53582). Kind of series: Inhibition of N-terminal poly-His-tagged human MetAP-1 expressed in Escherichia coli BL21(DE3) incubated for 30 mins before MGMM substrate addition by fluorescence assay.
Series [7] concerns Escherichia coli. Kind of series: Antimicrobial activity against Escherichia coli BL21(DE3) assessed as inhibition of bacterial growth at 200 uM incubated at 37 degC for 7 hrs. Type of series: functional. Conditions: for inhibition at 200 µM: BL21-DE3, 7 h.
The nature of series [8]: Half life assessed as decomposition into amines and unsaturated ketones at 250 uM in 50 mM Tris/maleate pH 7.5 buffer by HPLC method. In kind it is physicochemical. Conditions: for half-life at 250 µM: Tris/maleate buffer, pH 7.5; for t1/2: buffer, pH 7.5, 250 µM.
Series [9] addresses Methionine aminopeptidase 2 (Homo sapiens, UniProt P50579). The note with it: sf9.
Description: Inhibition of human MetAP-2 expressed in Sf9 cells incubated for 60 mins before MGMM substrate addition by fluorescence assay

Each structure is given as a SMILES string. Calls of active or inactive are those of the source.

Chain of Methionine aminopeptidase (Staphylococcus aureus (strain COL), UniProt Q5HEN6) (Q5HEN6 whole entry): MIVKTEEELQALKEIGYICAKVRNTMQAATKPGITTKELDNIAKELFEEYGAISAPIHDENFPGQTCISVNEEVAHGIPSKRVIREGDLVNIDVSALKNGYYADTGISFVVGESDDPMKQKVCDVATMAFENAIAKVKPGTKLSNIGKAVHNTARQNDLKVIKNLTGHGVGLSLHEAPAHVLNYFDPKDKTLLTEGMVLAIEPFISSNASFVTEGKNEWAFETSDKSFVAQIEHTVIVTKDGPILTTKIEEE
Chain of Methionine aminopeptidase 2 (P50579 whole entry): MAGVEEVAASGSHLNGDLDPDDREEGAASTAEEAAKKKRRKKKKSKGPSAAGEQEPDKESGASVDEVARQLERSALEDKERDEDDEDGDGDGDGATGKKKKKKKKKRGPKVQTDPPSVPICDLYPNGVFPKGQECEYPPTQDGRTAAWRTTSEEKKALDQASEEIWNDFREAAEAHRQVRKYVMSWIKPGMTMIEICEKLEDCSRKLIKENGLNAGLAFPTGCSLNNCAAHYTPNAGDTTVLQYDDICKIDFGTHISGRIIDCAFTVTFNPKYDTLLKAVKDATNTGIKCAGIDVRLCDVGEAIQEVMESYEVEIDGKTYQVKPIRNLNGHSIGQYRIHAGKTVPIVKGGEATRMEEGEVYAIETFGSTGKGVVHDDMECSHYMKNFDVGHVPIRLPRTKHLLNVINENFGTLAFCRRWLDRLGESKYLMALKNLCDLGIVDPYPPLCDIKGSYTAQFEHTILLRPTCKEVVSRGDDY

On to `C[C@@H]1O[C@@H]1P(=O)([O-])[O-].[Na+].[Na+]` [PHOSPHOMYCIN DISODIUM], for which the MIC in the series with Escherichia coli [1] came to 20 µg/mL.

On to `C=C1CCc2ccccc2C1=O`, for which the K in series [2] worked out at 1.4 M⁻¹ s⁻¹. Besides, the Activity result (with HaCaT; in series [3]) was “Toxic” each time. Further, the outcome in the series on A 172, with CAPAN-1, in the series with Ca-Ski, in the series with SW707, with Calu-6 and in the series with MeWo was Active. In addition, the outcome in the series on BT-474 and in the series with A-431 was Active.

`COc1ccc2c(c1)C(=O)C(CN(C)C)CC2.Cl` (stereo not drawn): the half-maximal inhibitory concentration (IC50) in series [4] (read-out: IC50) is 2.1 µM; in series [5] it was “Not Active”; in series [6], “Not Active”; in series [9], “Not Active”. Moreover, the inhibition at 200 µM in the series with Escherichia coli [7] came out at 49%. The half-life at 250 µM in series [8] was 6.8 h. In addition, the Activity entry (in the series on HaCaT; in series [3]) was “Toxic” throughout. Besides, the result with A 172, in the series on CAPAN-1, in the series on Ca-Ski, in the series with SW707, in the series with Calu-6 and with MeWo was Active. In addition, the result in the series with BT-474 and with A-431 was Active.

`C=C1CCc2ccc(OC)cc2C1=O`: the K in series [2] came to 1.7 M⁻¹ s⁻¹. In addition, the Activity result (in the series on HaCaT; in [3]) was “Toxic” throughout. For the same compound, the outcome with A 172, with CAPAN-1, in the series with Ca-Ski, in the series with SW707, in the series with Calu-6 and in the series with MeWo was Active. The outcome in the series with BT-474 and in the series on A-431 was Active.

For the compound `CN(C)CC1(C)Cc2ccccc2C1=O.Cl` (stereo not drawn), the IC50 entry in series [4], in series [5], in series [6] and in series [9] was “Not Active” each time. For the same compound, the inhibition result with Escherichia coli [7] is “inactive”. In addition, the t1/2 entry in series [8] is “Stable”. The Activity entry (in the series with HaCaT; in series [3]) was “Non-toxic” throughout. Also, the outcome in the series with A 172, in the series with CAPAN-1, in the series with Ca-Ski, with SW707, with Calu-6 and with MeWo was inactive. For the same compound, the result with BT-474 and in the series on A-431 was inactive.

Take `Cl.O=C(CCN1CCCCC1)c1ccccc1`: the half-inhibitory concentration (IC50) result in series [4], in series [5], in [6] and in [9] was “Not Active” each time. Besides, in the series on Escherichia coli [7], the inhibition result was “inactive”. Moreover, the t1/2 entry in [8] is “Stable”. The Activity result (in the series on HaCaT; in series [3]) was “Toxic” in each case. In addition, the result in the series with A 172, in the series with CAPAN-1, in the series on Ca-Ski, in the series on SW707, in the series with Calu-6 and in the series with MeWo was Active. Also, the outcome in the series with BT-474 and in the series on A-431 was Active.

Turning to `CN(C)CC1CCc2ccccc2C1=O.Cl` (stereo not drawn), the IC50 in series [4] (read-out: IC50) is 8.4 µM; in series [5], “Not Active”; in series [6], “Not Active”; in series [9], “Not Active”. For the same compound, in the series on Escherichia coli [7], the inhibition at 200 µM was determined as 68%. The half-life at 250 µM in series [8] came to 5.78 h. For the same compound, the Activity entry (in the series with HaCaT; in series [3]) was “Toxic” throughout. For the same compound, the result in the series with A 172, in the series on CAPAN-1, with Ca-Ski, with SW707, with Calu-6 and in the series on MeWo was Active. Moreover, the outcome with BT-474 and with A-431 was Active.

As for `COc1ccc2c(c1)C(=O)C(CN1CCCCC1)CC2.Cl` (stereo not drawn), the IC50 in series [4] (read-out: IC50) is 3.7 µM; in series [5] it was “Not Active”; in [6], “Not Active”; in series [9], “Not Active”. For the same compound, the inhibition at 200 µM with Escherichia coli [7] is 30%. Moreover, the half-life at 250 µM in [8] stood at 10.5 h. Moreover, the Activity result (in the series with HaCaT; in series [3]) was “Toxic” in each case. The result in the series on A 172, with CAPAN-1, in the series with Ca-Ski, with SW707, in the series with Calu-6 and in the series with MeWo was Active. For the same compound, the result with BT-474 and in the series on A-431 was Active.

For `CN(C)[C@@H]1C(O)=C(C(N)=O)C(=O)[C@@]2(O)C(O)=C3C(=O)c4c(O)cccc4[C@@](C)(O)[C@H]3C[C@@H]12.Cl` [TETRACYCLINE HYDROCHLORIDE], the MIC in the series with Escherichia coli [1] is 1 µg/mL.

For the compound `CC1CC(CN(C)C)C(=O)c2ccccc21.Cl` (stereo not drawn), the IC50 in [4] (read-out: IC50) was 3.8 µM; in series [5], “Not Active”; in [6], “Not Active”; in series [9] it was “Not Active”. For the same compound, the inhibition at 200 µM in the series on Escherichia coli [7] is 75%. The half-life at 250 µM in [8] amounted to 4.82 h. The Activity result (in the series with HaCaT; in [3]) was “Toxic” in each case. The result in the series with A 172, in the series with CAPAN-1, in the series on Ca-Ski, in the series with SW707, with Calu-6 and in the series on MeWo was Active. The outcome in the series with BT-474 and in the series with A-431 was Active.

Consider `NC[C@H]1O[C@H](O[C@H]2[C@H](O)[C@@H](O[C@H]3O[C@H](CO)[C@@H](O)[C@H](N)[C@H]3O)[C@H](N)C[C@@H]2N)[C@H](O)[C@@H](O)[C@@H]1O.O=S(=O)(O)O` [KANAMYCIN SULFATE], for which, in the series on Escherichia coli [1], the minimum inhibitory concentration (MIC) came out at 10 µg/mL.

On to `Cl.O=C1c2ccccc2CCC1CN1CCCCC1` (stereo not drawn), for which the IC50 in series [4] (read-out: IC50) was 9.1 µM; in series [5] it was “Not Active”; in series [6], “Not Active”; in [9], “Not Active”. For the same compound, in the series with Escherichia coli [7], the inhibition at 200 µM was determined as 28%. Besides, the half-life at 250 µM in series [8] worked out at 14.4 h. For the same compound, the Activity entry (in the series with HaCaT; in series [3]) was “Toxic” in each case. Moreover, the outcome in the series on A 172, in the series with CAPAN-1, in the series on Ca-Ski, in the series with SW707, with Calu-6 and in the series with MeWo was Active. Besides, the result in the series with BT-474 and in the series on A-431 was Active.

As for `COc1cccc(C(=O)CCN(C)C)c1.Cl`, the IC50 result in [4], in series [5], in [6] and in [9] was “Not Active” each time. Moreover, the inhibition result in the series with Escherichia coli [7] was “inactive”. The t1/2 result in [8] is “Stable”. The Activity result (with HaCaT; in series [3]) was “Toxic” throughout. Moreover, the result in the series with A 172, in the series with CAPAN-1, in the series on Ca-Ski, with SW707, in the series on Calu-6 and with MeWo was Active. Also, the result with BT-474 and with A-431 was Active.
